The target in data set [1] is HIV-1 integrase (IN), 3′-processing (Human immunodeficiency virus type 1 group M subtype B, UniProt P12497). Description: biochemical.
In data set [2] the target is HIV-1 integrase (IN), strand transfer, wild-type (Human immunodeficiency virus type 1 group M subtype B, UniProt P12497). Description: biochemical. The following applies: Strand transfer IC50, in vitro IN assays as described in reference [4].
The subject of data set [3] is HIV-1 integrase Y143R mutant. It counts as biochemical.
For data set [4], the system named is HIV-1 integrase N155H mutant. The data set is classed as biochemical.
Data set [5] has as its system HIV-1 vector with G140S/Q148H integrase. It counts as cell-based. The following applies: antiviral, mutant vector in cultured cells.
Data set [6] concerns HIV-1 vector with Y143R integrase. It counts as cell-based. The following applies: antiviral, cultured cells.
Data set [7] relates to HIV-1 vector with N155H integrase. It counts as cell-based. The following applies: antiviral, cultured cells.
For data set [8], the system named is cultured cells.
[9] abbreviates: 3′-Processing IC50, in vitro IN assays as described in reference [4].

Molecules are shown by their SMILES. Values joined by “and” are separate entries in the source; they are usually repeats but may differ in a detail not shown here. Equal values may be shown once.

By IC50 is commonly meant the concentration that gives 50% inhibition. A higher IC50 goes with lower potency. With `O=C1c2ccc(O)c(O)c2C(=O)N1Cc1ccc(F)c(Cl)c1` [3-1, reference compound], the IC50 came to 14 ± 3 µM in data set [1] (setting [9]) and 0.17 ± 0.06 µM in data set [2]. Turning to `O=C1c2ccc(O)c(O)c2C(=O)N1Cc1ccc(F)cc1` [3-2, reference compound], the concentration for half-maximal inhibition (IC50) in data set [1] (setting [9]) is 8 ± 3 µM. In turn, `O=C1c2ccc(O)c(O)c2C(=O)N1Cc1ccc(F)c(F)c1` [3-3, reference compound] yielded a 50% inhibitory concentration (IC50) in data set [1] (setting [9]) of 27 ± 1 µM. In data set [1] (setting [9]), `O=C1c2ccc(O)c(O)c2C(=O)N1Cc1cccc(Cl)c1F` [3-4, reference compound] had an IC50 of 25 ± 16 µM.

As for `O=C1c2ccc(O)c(O)c2C(=O)N1Cc1ccccc1` [3-5], the IC50 in data set [1] (setting [9]) is 72 ± 23 µM; in data set [2], 0.4 µM and 0.39 µM. For `O=C1c2ccc(O)c(O)c2C(=O)N1Cc1cccc2ccccc12` [3-6], the 50% inhibitory concentration (IC50) in data set [1] (setting [9]) is 150 ± 36 µM; in data set [2], 0.7 µM and 0.72 µM. With `O=C1c2c(c3n(c(=O)c2O)CCC3)C(=O)N1Cc1ccc(F)c(Cl)c1` [4a-1], in data set [1] (setting [9]), the IC50 was above 111 µM.

For the compound `O=C1c2c(c3n(c(=O)c2O)CCCC3)C(=O)N1Cc1ccc(F)c(Cl)c1` [4b-1], the “fold less sensitive than Raltegravir to the Y143R mutation” value in data set [3] was “more than 10 fold”. Besides, the “fold less sensitive than Raltegravir to the N155H mutation” value in data set [4] is given as “more than 2 fold”. Further, in data set [5], the “times less sensitive than Raltegravir to the G140S/Q148H mutation” value was found to be 200 times. In addition, in data set [6], the “fold lower loss of potency compared to Raltegravir, Y143R vector” value stood at 10 fold. Further, in data set [7], the “fold lower loss of potency compared to Raltegravir, N155H vector” value turned out to be 10 fold. For the same compound, the “cytotoxicity fold lower than 3-1” value in data set [8] amounted to 30 fold. In addition, the IC50 in data set [1] (3′-P IC50, metal cofactor Mg2+) is above 111 µM; in data set [1] (setting [9]), above 111 µM. As for `O=C1c2c(c3n(c(=O)c2O)CCCCC3)C(=O)N1Cc1ccc(F)c(Cl)c1` [4c-1], the IC50 in data set [1] (setting [9]) was above 111 µM. The compound `O=C1c2c(c3n(c(=O)c2O)CCCCC3)C(=O)N1Cc1ccc(F)cc1` [4c-2] yielded an IC50 in data set [1] (setting [9]) above 111 µM. Still for that read-out and setting: under `O=C1c2c(c3n(c(=O)c2O)CCCCC3)C(=O)N1Cc1ccc(F)c(F)c1` [4c-3] stands above 111 µM; under `O=C1c2c(c3n(c(=O)c2O)CCCCC3)C(=O)N1Cc1cccc(Cl)c1F` [4c-4], above 111 µM. As for `O=C1c2c(c3n(c(=O)c2O)CCCCC3)C(=O)N1Cc1ccccc1` [4c-5], the half-inhibitory concentration (IC50) in data set [1] (setting [9]) and in data set [2] was above 111 µM throughout. Regarding `O=C1c2c(c3n(c(=O)c2O)CCCCC3)C(=O)N1Cc1cccc2ccccc12` [4c-6], the half-maximal inhibitory concentration (IC50) in data set [1] (setting [9]) was above 111 µM. Turning to `O=C1c2c(c3n(c(=O)c2O)CCCCCC3)C(=O)N1Cc1ccc(F)c(Cl)c1` [4d-1], the IC50 in data set [1] (setting [9]) is above 111 µM.
